From PMC7257206, “A novel sphingosylphosphorylcholine and sphingosine-1-phosphate receptor 1 antagonist, KRO-105714, for alleviating atopic dermatitis” (Journal of Inflammation (London, England), 2020) come the findings set out here.

Series [1] addresses T1, sphingosine-1-phosphate receptor 1 (S1P1) (Homo sapiens, UniProt P21453).
T1 construct: gene S1PR1; hS1P1 stably expressed in HEK-293 cells (membrane pellets)
Kind of series: […]-GTPγS binding assay (SPC-stimulated) in membranes of HEK-293 cells stably expressing hS1P1. In kind it is biochemical.

In series [2] the target is T2, 2D6 (Homo sapiens, UniProt P10635).
T2 construct: gene CYP2D6
Kind of series: biochemical. Set-up: CYP450 isoform inhibition assay, IC50. The following applies: read-out: CYP450 IC50.

Series [3] has as its target T3, 2C9 (Homo sapiens, UniProt P11712).
T3 construct: gene CYP2C9
Kind of series: biochemical.

For series [4], the target named is T4, 1A2 (Homo sapiens, UniProt P05177).
T4 construct: gene CYP1A2
T4 sequence (P05177 1-516): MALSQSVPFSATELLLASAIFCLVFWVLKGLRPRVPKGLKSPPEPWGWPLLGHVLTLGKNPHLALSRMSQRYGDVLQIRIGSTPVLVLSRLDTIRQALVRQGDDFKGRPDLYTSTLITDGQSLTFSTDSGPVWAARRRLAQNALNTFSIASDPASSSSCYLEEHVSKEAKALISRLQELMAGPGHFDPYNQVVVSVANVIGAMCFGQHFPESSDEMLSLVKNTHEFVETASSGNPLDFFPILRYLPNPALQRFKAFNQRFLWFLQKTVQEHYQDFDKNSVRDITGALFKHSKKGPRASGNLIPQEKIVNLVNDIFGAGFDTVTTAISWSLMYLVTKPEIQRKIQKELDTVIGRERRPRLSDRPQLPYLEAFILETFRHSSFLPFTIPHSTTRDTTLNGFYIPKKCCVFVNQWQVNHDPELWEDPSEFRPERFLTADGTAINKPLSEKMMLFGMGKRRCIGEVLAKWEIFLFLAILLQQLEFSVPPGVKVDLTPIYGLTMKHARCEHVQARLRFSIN
Kind of series: biochemical. Details: CYP450 isoform inhibition assay, IC50. Conditions: read-out: CYP450 IC50.

Series [5] concerns the target T5, 3A4 (Homo sapiens, UniProt P08684).
T5 construct: gene CYP3A4
Kind of series: biochemical. Set-up: CYP450 isoform inhibition assay, IC50. Conditions: read-out: CYP450 IC50.

In series [6] the target is T6, 2C19 (Homo sapiens, UniProt P33261).
T6 construct: gene CYP2C19
Kind of series: biochemical. Set-up: CYP450 isoform inhibition assay, IC50. Conditions: read-out: CYP450 IC50.

Series [7] concerns the target T7, hERG potassium channel (Homo sapiens, UniProt Q12809).
T7 construct: gene KCNH2
Kind of series: in vitro. Details: hERG binding assay, [3H]astemizole displacement. The procedure: KRO-105714 also had no cardiotoxicity in the hERG potassium channel binding assay (IC50 > 10 μM) (Additional file 1: Table S1B).

Series [8] has as its target T7, hERG potassium channel. Kind of series: biochemical.

T7 sequence (Q12809 whole entry): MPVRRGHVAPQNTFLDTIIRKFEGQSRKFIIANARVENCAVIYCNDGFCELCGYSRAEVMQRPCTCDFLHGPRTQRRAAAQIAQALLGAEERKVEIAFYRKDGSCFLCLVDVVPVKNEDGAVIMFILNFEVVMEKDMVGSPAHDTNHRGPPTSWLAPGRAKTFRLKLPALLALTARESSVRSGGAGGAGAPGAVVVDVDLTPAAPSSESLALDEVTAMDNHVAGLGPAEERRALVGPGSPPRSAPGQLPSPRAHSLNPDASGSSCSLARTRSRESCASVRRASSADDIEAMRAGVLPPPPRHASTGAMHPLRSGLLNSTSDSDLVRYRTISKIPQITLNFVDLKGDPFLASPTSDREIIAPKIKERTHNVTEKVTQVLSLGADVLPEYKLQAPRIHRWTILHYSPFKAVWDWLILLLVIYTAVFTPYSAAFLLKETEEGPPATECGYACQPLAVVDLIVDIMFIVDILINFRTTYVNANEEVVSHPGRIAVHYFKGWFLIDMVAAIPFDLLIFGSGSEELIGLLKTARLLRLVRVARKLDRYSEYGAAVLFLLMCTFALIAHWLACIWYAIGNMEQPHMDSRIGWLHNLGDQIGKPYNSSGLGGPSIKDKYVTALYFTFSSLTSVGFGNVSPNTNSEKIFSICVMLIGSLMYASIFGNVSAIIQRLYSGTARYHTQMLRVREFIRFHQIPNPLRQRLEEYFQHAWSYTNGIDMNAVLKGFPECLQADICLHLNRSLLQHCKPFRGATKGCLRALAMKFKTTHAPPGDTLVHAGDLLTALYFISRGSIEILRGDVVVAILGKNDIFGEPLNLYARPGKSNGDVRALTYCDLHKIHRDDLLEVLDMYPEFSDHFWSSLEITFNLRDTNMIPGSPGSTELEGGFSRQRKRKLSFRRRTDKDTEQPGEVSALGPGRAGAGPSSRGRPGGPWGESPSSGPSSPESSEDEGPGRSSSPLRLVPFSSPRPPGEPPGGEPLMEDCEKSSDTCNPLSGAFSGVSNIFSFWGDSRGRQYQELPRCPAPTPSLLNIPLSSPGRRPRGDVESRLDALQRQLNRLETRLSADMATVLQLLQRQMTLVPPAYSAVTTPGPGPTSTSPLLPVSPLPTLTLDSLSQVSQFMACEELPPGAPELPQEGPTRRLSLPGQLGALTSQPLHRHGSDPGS
T2 sequence (P10635 whole entry): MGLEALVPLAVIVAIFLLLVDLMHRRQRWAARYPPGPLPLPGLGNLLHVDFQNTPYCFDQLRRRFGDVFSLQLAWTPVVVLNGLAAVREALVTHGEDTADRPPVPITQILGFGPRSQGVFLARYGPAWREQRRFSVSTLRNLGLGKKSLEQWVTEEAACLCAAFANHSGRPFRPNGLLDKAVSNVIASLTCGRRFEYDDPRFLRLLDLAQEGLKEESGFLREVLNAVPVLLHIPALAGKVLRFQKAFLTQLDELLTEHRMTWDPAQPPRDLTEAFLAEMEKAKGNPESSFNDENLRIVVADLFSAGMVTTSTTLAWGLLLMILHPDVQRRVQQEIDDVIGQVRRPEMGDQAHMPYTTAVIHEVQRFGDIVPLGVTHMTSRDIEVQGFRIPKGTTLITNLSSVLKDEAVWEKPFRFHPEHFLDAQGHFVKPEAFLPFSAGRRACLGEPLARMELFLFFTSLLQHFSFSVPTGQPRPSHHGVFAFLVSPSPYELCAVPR
T1 sequence (P21453 whole entry): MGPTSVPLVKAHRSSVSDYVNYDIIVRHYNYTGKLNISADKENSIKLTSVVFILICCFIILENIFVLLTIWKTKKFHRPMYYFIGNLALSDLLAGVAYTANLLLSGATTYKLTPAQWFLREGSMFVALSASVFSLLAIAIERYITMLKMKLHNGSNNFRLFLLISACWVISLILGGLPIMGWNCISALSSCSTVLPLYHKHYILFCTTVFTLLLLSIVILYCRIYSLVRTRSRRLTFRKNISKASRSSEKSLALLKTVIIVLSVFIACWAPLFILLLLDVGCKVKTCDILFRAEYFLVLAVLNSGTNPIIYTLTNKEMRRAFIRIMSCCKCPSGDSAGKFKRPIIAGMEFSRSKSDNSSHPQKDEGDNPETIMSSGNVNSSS
T3 sequence (P11712 whole entry): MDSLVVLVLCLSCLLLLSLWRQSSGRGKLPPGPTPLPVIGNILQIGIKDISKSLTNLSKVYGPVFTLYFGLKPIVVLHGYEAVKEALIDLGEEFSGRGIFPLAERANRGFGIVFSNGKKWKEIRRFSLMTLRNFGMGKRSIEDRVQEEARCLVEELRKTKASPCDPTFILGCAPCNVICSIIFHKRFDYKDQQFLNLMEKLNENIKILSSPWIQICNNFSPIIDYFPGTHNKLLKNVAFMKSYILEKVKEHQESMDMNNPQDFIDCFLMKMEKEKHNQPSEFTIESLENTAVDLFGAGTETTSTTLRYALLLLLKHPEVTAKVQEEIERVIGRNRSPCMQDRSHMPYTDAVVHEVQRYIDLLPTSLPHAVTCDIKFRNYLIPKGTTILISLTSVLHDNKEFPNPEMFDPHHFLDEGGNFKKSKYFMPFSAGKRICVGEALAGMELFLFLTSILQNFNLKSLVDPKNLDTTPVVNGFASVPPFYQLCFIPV
T6 sequence (P33261 whole entry): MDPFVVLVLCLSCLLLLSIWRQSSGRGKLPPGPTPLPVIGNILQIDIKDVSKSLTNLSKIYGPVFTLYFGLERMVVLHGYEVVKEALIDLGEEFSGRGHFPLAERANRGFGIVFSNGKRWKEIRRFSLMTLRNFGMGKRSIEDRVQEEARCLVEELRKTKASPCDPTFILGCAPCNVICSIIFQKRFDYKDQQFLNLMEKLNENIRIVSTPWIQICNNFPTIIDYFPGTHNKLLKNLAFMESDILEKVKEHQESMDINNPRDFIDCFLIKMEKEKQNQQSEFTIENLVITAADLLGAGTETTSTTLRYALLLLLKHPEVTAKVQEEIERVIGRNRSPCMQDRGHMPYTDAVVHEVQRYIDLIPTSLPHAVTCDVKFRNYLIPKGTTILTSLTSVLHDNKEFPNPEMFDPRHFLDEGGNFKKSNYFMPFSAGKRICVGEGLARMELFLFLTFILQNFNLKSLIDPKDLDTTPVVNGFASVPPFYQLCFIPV
T5 sequence (P08684 whole entry): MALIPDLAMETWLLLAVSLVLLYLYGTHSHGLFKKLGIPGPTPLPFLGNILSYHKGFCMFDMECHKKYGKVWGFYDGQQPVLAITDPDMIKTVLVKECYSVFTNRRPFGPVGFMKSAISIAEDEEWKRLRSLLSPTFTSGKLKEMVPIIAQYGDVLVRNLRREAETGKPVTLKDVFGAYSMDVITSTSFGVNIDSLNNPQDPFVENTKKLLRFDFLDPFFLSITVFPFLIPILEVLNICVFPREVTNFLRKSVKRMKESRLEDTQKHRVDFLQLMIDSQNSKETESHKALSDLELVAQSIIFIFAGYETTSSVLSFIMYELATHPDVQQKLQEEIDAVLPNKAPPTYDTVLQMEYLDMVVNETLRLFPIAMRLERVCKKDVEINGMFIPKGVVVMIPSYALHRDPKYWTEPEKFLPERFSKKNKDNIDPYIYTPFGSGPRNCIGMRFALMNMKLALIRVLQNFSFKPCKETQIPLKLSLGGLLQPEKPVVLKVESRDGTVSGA

`COc1ccccc1N1CCN(c2nc(NC(=O)C(C)(C)C)c(C(=O)c3ccccc3)s2)CC1` [KRO-105714]: the IC50 in series [1] was 0.0792 µM; in series [2] it was more than 10 µM; in series [3] it was more than 10 µM; in series [4] it was more than 10 µM; in series [5], more than 10 µM; in series [6] it was more than 10 µM. The compound also showed a half-inhibitory concentration (IC50) in series [8] of more than 10 µM. Further, in series [7] (read-out: %-Inhibition/[3H]Astemizole -5), the inhibition at 10 µM was found to be 45%. Besides, the inhibition at 1 µM in series [7] (read-out: %-Inhibition/[3H]Astemizole -6) came to 3%.
